Data on 1 compound can be found in patent US20180010188A1, “METHOD FOR DETECTING NONSENSE-MEDIATED RNA DECAY” (The Regents of the University of California, priority 2016, published 2018).

Each structure is given as a SMILES string.

The assay concerns cryptic isoforms of A230046K03Rik, Mib1 and Usp15. The assay can be described thus: Quantitative analysis of TDP-43-repressed cryptic exon splicing. It counts as cell-based, mouse. An excerpt: To investigate the possible compounding effect of ER stress on TDP-43-mediated cryptic isoforms, we examined the expression of TDP-43-repressed cryptic exons with and without thapsigargin treatment. We designed specific PCR primers flanking the previously reported cryptic exons of A230046K03Rik, Mib1 and Usp15 and performed capillary electrophoresis to measure the ratios of the cryptic isoforms to the normal isoforms. The splicing of cryptic exons was not detected in cells treated with control siRNA or DMSO but was drastically boosted by RNAi-mediated depletion of Tdp-43 (FIGS. 5A-E).
Neuro-2a (N2a) cells were maintained in N2a complete media consisting of L-glutamine-free Dulbecco's modified Eagle's medium (DMEM), 10% FBS and 1× GlutaMAX at 37° C. Thapsigargin (VWR, cat. no. 89161-410), ionomycin (Fisher Scientific, cat. no. AG-CN2-0416-M001) and ouabain octahydrate (Fisher Scientific, cat. no. 80055-364) were dissolved in DMSO and stored at −80° C. […]
We optimized the PCR cycle numbers for Psd-95 (28 cycles), A230046K03Rik, Mib1 and Usp15 and eventually used 29 cycles for relative quantification of the transcript isoforms. […] The molar abundance (nM) of each isoform was quantified using QIAxcel Screengel software v1.4. Splicing of the cryptic exon was determined using the following formula. […]

Regarding `C/C=C(/C)C(=O)O[C@H]1C(C)=C2[C@H]([C@@H]1OC(=O)CCCCCCC)[C@@](C)(OC(C)=O)C[C@H](OC(=O)CCC)[C@@]1(O)[C@H]2OC(=O)[C@@]1(C)O` [thapsigargin], the “level of cryptic isoforms in mock-transfected or control siRNA-transfected cells” value (0.2 μM thapsigargin) is on record as “no effect”. Also, the “level of cryptic isoforms in TDP-43-deficient cells” value (0.2 μM thapsigargin after siTdp43) was “further increased”.
